Reference: PubChem BioAssay (NCI)
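Compound exposure: 48 hours, 5 concentrations, 96-well plates. Here, GI50 denotes the concentration required for 50% inhibition of growth. Definition used: TGI = concentration required for complete inhibition of growth.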

Experiments:
Assay in all cases: inhibition of tumour cell growth, NCI panel, 48 h
ACHN renal = system: ACHN renal
U251 CNS = system: U251 CNS
SR leukemia = system: SR leukemia
MDA-MB-435 = system: MDA-MB-435
NCI-H460 lung = system: NCI-H460 lung
OVCAR-4 ovarian = system: OVCAR-4 ovarian
HL-60(TB) leukemia = system: HL-60(TB) leukemia
TK-10 renal = system: TK-10 renal
EKVX NSCLC = system: EKVX NSCLC
RXF 393 renal = system: RXF 393 renal
SK-MEL-28 melanoma = system: SK-MEL-28 melanoma
SNB-75 CNS = system: SNB-75 CNS
SF-268 CNS = system: SF-268 CNS
NCI/ADR-RES ovarian = system: NCI/ADR-RES ovarian
MOLT-4 leukemia = system: MOLT-4 leukemia
DU-145 prostate = system: DU-145 prostate
SK-MEL-2 melanoma = system: SK-MEL-2 melanoma
SF-539 CNS = system: SF-539 CNS
A549 NSCLC = system: A549 NSCLC
MCF7 breast = system: MCF7 breast
COLO 205 colon = system: COLO 205 colon
SF-295 CNS = system: SF-295 CNS
BT-549 breast = system: BT-549 breast
NCI-H522 lung = system: NCI-H522 lung
NCI-H23 lung = system: NCI-H23 lung
HS 578T breast = system: HS 578T breast
UACC-62 melanoma = system: UACC-62 melanoma
SNB-19 CNS = system: SNB-19 CNS
K-562 leukemia = system: K-562 leukemia
HCT-116 colon = system: HCT-116 colon
CAKI-1 renal = system: CAKI-1 renal
HT29 colon = system: HT29 colon
NCI-H226 lung = system: NCI-H226 lung
IGROV1 ovarian = system: IGROV1 ovarian
OVCAR-3 ovarian = system: OVCAR-3 ovarian
UACC-257 melanoma = system: UACC-257 melanoma
A498 renal = system: A498 renal
RPMI-8226 leukemia = system: RPMI-8226 leukemia
LOX IMVI melanoma = system: LOX IMVI melanoma
KM12 colon = system: KM12 colon
HCT-15 colon = system: HCT-15 colon
OVCAR-5 ovarian = system: OVCAR-5 ovarian
786-0 renal = system: 786-0 renal
SK-MEL-5 melanoma = system: SK-MEL-5 melanoma
OVCAR-8 ovarian = system: OVCAR-8 ovarian
SN12C renal = system: SN12C renal
UO-31 renal = system: UO-31 renal
MDA-MB-231 breast = system: MDA-MB-231 breast
PC-3 prostate = system: PC-3 prostate
M14 melanoma = system: M14 melanoma
SW-620 colon = system: SW-620 colon

Structure (SMILES): CCCN1C(=O)/C(=C/c2cccc(O)c2)SC1=Nc1ccccc1
- GI50 (ACHN renal): 16.4 µM
- TGI (ACHN renal): 31.2 µM
- GI50 (U251 CNS): 14.1 µM
- TGI (U251 CNS): 28.2 µM
- GI50 (SR leukemia): 17.5 µM
- TGI (SR leukemia): > 100 µM
- GI50 (MDA-MB-435): 22.7 µM
- TGI (MDA-MB-435): 51.3 µM
- GI50 (NCI-H460 lung): 14.8 µM
- TGI (NCI-H460 lung): 37.7 µM
- GI50 (OVCAR-4 ovarian): 23.2 µM
- TGI (OVCAR-4 ovarian): 58.4 µM
- GI50 (HL-60(TB) leukemia): 30.8 µM
- TGI (HL-60(TB) leukemia): > 100 µM
- GI50 (TK-10 renal): 6.7 µM
- TGI (TK-10 renal): 24 µM
- GI50 (EKVX NSCLC): 19.2 µM
- TGI (EKVX NSCLC): 33.9 µM
- GI50 (RXF 393 renal): 17.6 µM
- TGI (RXF 393 renal): 36.9 µM
- GI50 (SK-MEL-28 melanoma): 21.1 µM
- TGI (SK-MEL-28 melanoma): 42.5 µM
- GI50 (SNB-75 CNS): 15.1 µM
- TGI (SNB-75 CNS): 32.9 µM
- GI50 (SF-268 CNS): 22.7 µM
- TGI (SF-268 CNS): 57.3 µM
- GI50 (NCI/ADR-RES ovarian): 17.3 µM
- TGI (NCI/ADR-RES ovarian): 33.1 µM
- GI50 (MOLT-4 leukemia): 38 µM
- TGI (MOLT-4 leukemia): > 100 µM
- GI50 (DU-145 prostate): 13 µM
- TGI (DU-145 prostate): 25.6 µM
- GI50 (SK-MEL-2 melanoma): 16.6 µM
- TGI (SK-MEL-2 melanoma): 36.5 µM
- GI50 (SF-539 CNS): 18.8 µM
- TGI (SF-539 CNS): 34 µM
- GI50 (A549 NSCLC): 15.1 µM
- TGI (A549 NSCLC): 31.7 µM
- GI50 (MCF7 breast): 24.4 µM
- TGI (MCF7 breast): > 100 µM
- GI50 (COLO 205 colon): 18.4 µM
- TGI (COLO 205 colon): 41.5 µM
- GI50 (SF-295 CNS): 19 µM
- TGI (SF-295 CNS): 83.8 µM
- GI50 (BT-549 breast): 17.1 µM
- TGI (BT-549 breast): 30.8 µM
- GI50 (NCI-H522 lung): 22.3 µM
- TGI (NCI-H522 lung): 60 µM
- GI50 (NCI-H23 lung): 19 µM
- TGI (NCI-H23 lung): 34.3 µM
- GI50 (HS 578T breast): 16.7 µM
- TGI (HS 578T breast): 34.7 µM
- GI50 (UACC-62 melanoma): 16.4 µM
- TGI (UACC-62 melanoma): 29.9 µM
- GI50 (SNB-19 CNS): 18 µM
- TGI (SNB-19 CNS): 34.5 µM
- GI50 (K-562 leukemia): 6.72 µM
- TGI (K-562 leukemia): > 100 µM
- GI50 (HCT-116 colon): 38.3 µM
- TGI (HCT-116 colon): > 100 µM
- GI50 (CAKI-1 renal): 22 µM
- TGI (CAKI-1 renal): 38 µM
- GI50 (HT29 colon): 17.3 µM
- TGI (HT29 colon): 33.8 µM
- GI50 (NCI-H226 lung): 20.8 µM
- TGI (NCI-H226 lung): 41.2 µM
- GI50 (IGROV1 ovarian): 20 µM
- TGI (IGROV1 ovarian): 44.4 µM
- GI50 (OVCAR-3 ovarian): 17.7 µM
- TGI (OVCAR-3 ovarian): 32.3 µM
- GI50 (UACC-257 melanoma): 18.8 µM
- TGI (UACC-257 melanoma): 36 µM
- GI50 (A498 renal): 2.7 µM
- TGI (A498 renal): 17.1 µM
- GI50 (RPMI-8226 leukemia): 14.5 µM
- TGI (RPMI-8226 leukemia): 34.3 µM
- GI50 (LOX IMVI melanoma): 11.8 µM
- TGI (LOX IMVI melanoma): 25.5 µM
- GI50 (KM12 colon): 11.9 µM
- TGI (KM12 colon): 26.9 µM
- GI50 (HCT-15 colon): 14.8 µM
- TGI (HCT-15 colon): 29.6 µM
- GI50 (OVCAR-5 ovarian): 16.8 µM
- TGI (OVCAR-5 ovarian): 31 µM
- GI50 (786-0 renal): 20.7 µM
- TGI (786-0 renal): 49.9 µM
- GI50 (SK-MEL-5 melanoma): 19.6 µM
- TGI (SK-MEL-5 melanoma): 35.2 µM
- GI50 (OVCAR-8 ovarian): 19 µM
- TGI (OVCAR-8 ovarian): 37.9 µM
- GI50 (SN12C renal): 15.7 µM
- TGI (SN12C renal): 29.1 µM
- GI50 (UO-31 renal): 17.4 µM
- TGI (UO-31 renal): 34.4 µM
- GI50 (MDA-MB-231 breast): 11.4 µM
- TGI (MDA-MB-231 breast): 24 µM
- GI50 (PC-3 prostate): 16.9 µM
- TGI (PC-3 prostate): 33.1 µM
- GI50 (M14 melanoma): 29 µM
- TGI (M14 melanoma): 67.8 µM
- GI50 (SW-620 colon): 18.5 µM
- TGI (SW-620 colon): 34.4 µM
